Data from US8992996B2, “Cosmetic” (Restorsea, LLC, priority 2012, dated 2015).

Tested on: follicles (microcomedones)
Set-up: species or system human
Settings: in vivo
Experimental: A study is conducted to determine the comedogenic potential of test materials in the form of day cream and eye cream with formulations disclosed above by assessing whether the test materials elicited microcomedones, after four weeks of repeated application under occlusive patch conditions, relative to a negative control (undosed patch). Acetylated Lanolin Alcohol served as a positive control material in order to validate the study. The tests are conducted during a 4 week study period. A total of 15 subjects, ranging in age from 22 to 45 years, are selected for the study. All 15 participants completed the study.

average ratio of microcomedones per follicle: 6%
Substance: Acetylated Lanolin Alcohol
ratio of microcomedones to follicles compared with negative control (statistics): significantly greater ratio than the negative control
